Results taken from patent US20260365633A1, “Novel PEM Structures for SBX” (Roche Sequencing Solutions, Inc., priority 2023, published 2026).

Assays:
[1] = test system: nucleic acid polymerase; assay: PEM activity summary: primer extension on 45mer, 100mer, 150mer, 222mer DNA templates, gel (Table 2); format: biochemical; conditions: preliminary functional characterization
Experimental: In some instances, the PEM compounds of the present disclosure were tested in primer extension reactions using DNA templates of the following lengths: A) 45mer; B) 100mer; C) 150mer; and D) 222mer.

[2] = test system: DNA polymerase; assay: SBX nanopore sequencing of primer extension products, histogram of aligned reads; format: biochemical
Text: To investigate the accuracy of PEM-dependent enhancement of XNTP polymerization, primer extension products were sequenced using the SBX protocol. Briefly, the constrained Xpandomer products of XNTP polymerization are cleaved to generate linearized Xpandomers. This is accomplished by first quenching the extension reaction with a solution containing 100 Mm EDTA, 2 Mm THPTA, and 2% Tween-20. Then the sample is subjected to amine modification with a solution of 1 M NaHCO3 and 1 M succinic anhydride in DMF. Cleavage of the phosphoramidate bonds is carried out with 37% HCl and linearized Xpandomers are purified with QIAquick columns (QIAGEN, Inc.).
For sequencing, protein nanopores are prepared by inserting a-hemolysin into a DphPE/hexadecane bilayer member in buffer B1, containing 2 M NH4Cl and 100 Mm HEPES, Ph 7.4. The cis well is perfused with buffer B2, containing 0.4 M NH4Cl, 0.6 M GuCl, and 100 Mm HEPES, Ph 7.4. The Xpandomer sample is heated to 70 °C for 2 minutes, cooled completely, then a 2 μL sample is added to the cis well. A voltage pulse of 90Mv/390Mv/10 μs is then applied and data is acquired via Labview acquisition software.
Sequence data is analyzed by histogram display of the population of sequence reads from a single SBX reaction. […] Representative histograms of SBX sequencing of a 45mer template are presented in FIG. 6A (no additive control) and FIG. 6B (SBX in the presence of PEM compound 1).

[3] = test system: DNA polymerase; assay: Primer extension with XNTPs, gel electrophoresis (PEM screen, 45mer template); format: biochemical; conditions: for primer extension products with XNTPs: 45mer template, FIG. 4, vs no PEM additive (up to only around 14 XNTPs)
Text: The Sequencing by Expansion (SBX) methodology developed by the inventors provides significant performance enhancements in sequence read efficiency and accuracy of Xpandomers relative to native DNA. However, initial transcription of the sequence of the natural DNA template onto the measurable Xpandomer relies on the ability of DNA polymerase to utilize XNTPs as substrates (the generalized structure of an XNTP is discussed herein with reference to FIG. 1A and FIG. 2). […] In an effort to improve the efficiency and accuracy of XNTP polymerization into Xpandomers, several PEMs were screened for the ability to enhance DNA polymerase primer extension reactions using XNTPs as substrates.
A representative primer extension reaction may include the following reagents: 2 pmol primer, 2.2 pmol 45mer [COMPOUND LEFT OUT] template, 50 pmol of each XNTP (XATP, XCTP, XGTP, and XTTP), 50 Mm Tris HCl, Ph 6.79, 200 Mm NaCl, 20% PEG, 5% NMS, 0.5 nmol polyphosphate 60.19, 0.3 Mm MnCl2, and 0.6 μg of purified recombinant DNA polymerase protein. Reactions may be run for 1 hour at 23 °C. Reaction products (i.e., constrained Xpandomers) are treated to cleave the phosphoramidate bonds, thereby generating linearized Xpandomers. Reaction products may be analyzed using gel electrophoresis on 4-12% acrylamide gels to resolve and visualize Xpandomer products of different lengths. For the PEM screen described above, PEMs were typically tested in the micro to millimolar range.

[4] = target: T1, C4552 DNA polymerase (Saccharolobus solfataricus, UniProt Q97W02, A155G/A42V/D156R/D292Y/D294N/E291S/E324K/E325K/E327K/E79L/G187P/G299W/I153V/I189F/I248T/I295S/K152A/K317Q/K321Q/K56Y/K78D/L293W/M76W/N188Y/P184Q/Q82W/Q83G/R300S/S297Y/S86E/T290K/T301W/V289W/V296Q); assay: Primer extension on HIV1, HIV2, HIV3 100mer templates with C4552 polymerase, gel; format: biochemical, Sulfolobus solfataricus; conditions: 0.5 Mm PEM, 30 minutes at 23 °C, three 100mer templates, FIG. 9
T1 construct: Tth SSB in reaction as additive
T1 sequence (Q97W02 1-340 A155G/A42V/D156R/D292Y/D294N/E291S/E324K/E325K/E327K/E79L/G187P/G299W/I153V/I189F/I248T/I295S/K152A/K317Q/K321Q/K56Y/K78D/L293W/M76W/N188Y/P184Q/Q82W/Q83G/R300S/S297Y/S86E/T290K/T301W/V289W/V296Q): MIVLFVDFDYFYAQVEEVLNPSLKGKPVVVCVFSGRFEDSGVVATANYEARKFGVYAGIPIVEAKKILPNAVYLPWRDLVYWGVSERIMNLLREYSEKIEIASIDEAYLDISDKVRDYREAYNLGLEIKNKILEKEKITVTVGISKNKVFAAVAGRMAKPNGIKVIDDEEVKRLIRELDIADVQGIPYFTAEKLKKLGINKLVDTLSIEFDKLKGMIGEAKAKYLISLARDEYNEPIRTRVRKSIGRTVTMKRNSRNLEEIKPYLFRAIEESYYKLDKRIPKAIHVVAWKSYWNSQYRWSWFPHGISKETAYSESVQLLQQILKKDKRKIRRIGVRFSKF
Experimental: PEM activity of compounds 9-11 was tested in primer extension assays using three 100mer templates, derived from the HIV1, 2, and 3 genomes. Primer extension reactions included the following reagents: 75 Mm TrisCl, Ph 8.44, 175 Mm NH40ac, 20% PEG8K, 5% NMS, 0.8 nmol PP-60.20, 0.6 Mm MnCl2, 2.3 μg Tth single-strand binding protein (SSB), 0.5 M or 1 M urea, 200 pmol each XNTP, 1.1 pmol template, 1 pmol [COMPOUND LEFT OUT] primer, 1.2 μg purified recombinant C4552 DNA polymerase, and 0.5 Mm PEM. 10 μL primer extension reactions were run for 30 minutes at 23 °C and reaction products were analyzed by gel electrophoresis.

Row | Structure (SMILES) | Functional Category: PEM effect [1] | primer extension products with XNTPs [3] | other results
1 | CCNC(=O)c1cc(-c2cn(-c3ccc(C(=O)NCC)c(C(F)(F)F)c3)nn2)nc(-c2cn(-c3ccc(C(=O)NCC)c(C(F)(F)F)c3)nn2)c1 [Compound 236, N-Ethyl-2,6-bis{1-[4-(N-ethylcarbamoyl)-3-(trifluoromethyl)phenyl]-1H-1,2,3-triazol-4-yl}isonicotinamide] | PEM effect |  | 
2 | O=C(O)c1ccc(-n2cc(-c3cccc(-c4cn(-c5ccc(C(=O)O)c(O)c5)nn4)c3)nn2)cc1 [Compound 176, 4-(4-{m-[1-(p-Carboxyphenyl)-1H-1,2,3-triazol-4-yl]phenyl}-1H-1,2,3-triazol-1-yl)-2-hydroxybenzoic acid] | PEM effect |  | 
3 | O=C(O)c1ccc(-n2cc(-c3cccc(-c4cn(-c5ccc(C(=O)O)c(O)c5)nn4)n3)nn2)cc1O [Compound 1, 4,4′-(pyridine-2,6-diylbis(1H-1,2,3-triazole-4,1-diyl))bis(2-hydroxybenzoic acid)] |  | considerably longer extension products | accuracy of sequence reads ([2]; 45mer template, FIG. 6B, vs no additive (not accurate past around base 18)): increased the accuracy of the sequence reads across the entire length of the 45mer template; sequence reads ([2]; 60mer template, FIG. 7A): accurate sequence reads completely to the end; sequence reads ([2]; 80mer template, FIG. 7B): accurate sequence reads completely to the end
4 | CCNC(=O)c1cc(-c2cn(-c3ccc(C(=O)NCC(=O)NCC(=O)O)c(C(F)(F)F)c3)nn2)nc(-c2cn(-c3ccc(C(=O)NCC(=O)NCC(=O)O)c(C(F)(F)F)c3)nn2)c1 [Compound 113, 2,2′-((2,2′-((4,4′-((4-(ethylcarbamoyl)pyridine-2,6-diyl)bis(1H-1,2,3-triazole-4,1-diyl))bis(2-(trifluoromethyl)benzoyl))bis(azanediyl))bis(acetyl))bis(azanediyl))diacetic acid] | PEM effect |  | 
5 | COc1cc(-c2cn(-c3ccc(C(=O)O)c(O)c3)nn2)nc(-c2cn(-c3ccc(C(=O)O)c(O)c3)nn2)c1 [Compound 9, 4,4′-((4-methoxypyridine-2,6-diyl)bis(1H-1,2,3-triazole-4,1-diyl))bis(2-hydroxybenzoic acid)] |  |  | XNTP polymerization efficiency relative to compound 1 [4]: at least as efficiently as compound 1
6 | O=C(O)c1ccc(-n2cc(-c3cccc(-c4cn(-c5ccc(C(=O)O)c(O)c5)nn4)c3)nn2)cc1O [Compound 3, 4,4′-(1,3-phenylenebis(1H-1,2,3-triazole-4,1-diyl))bis(2-hydroxybenzoic acid)] |  | considerably longer extension products | 
7 | CCNC(=O)c1cc(-c2cn(-c3ccc4cc(C(=O)O)ccc4c3)nn2)nc(-c2cn(-c3ccc4cc(C(=O)O)ccc4c3)nn2)c1 [Compound 206, 6-(4-{6-[1-(6-Carboxy-2-naphthyl)-1H-1,2,3-triazol-4-yl]-4-(N-ethylcarbamoyl)-2-pyridyl}-1H-1,2,3-triazol-1-yl)-2-naphthoic acid] | PEM effect |  | 
8 | O=C(O)c1ccc(-n2cc(-c3ccc4[nH]c5ccc(-c6cn(-c7ccc(C(=O)O)c(O)c7)nn6)cc5c4c3)nn2)cc1O [Compound 4, 4,4′-((9H-carbazole-3,6-diyl)bis(1H-1,2,3-triazole-4,1-diyl))bis(2-hydroxybenzoic acid)] |  | considerably longer extension products | 
9 | O=C(O)c1ccc(-n2cc(-c3cc([N+](=O)[O-])cc(-c4cn(-c5ccc(C(=O)O)c(O)c5)nn4)n3)nn2)cc1O [Compound 11, 4,4′-((4-nitropyridine-2,6-diyl)bis(1H-1,2,3-triazole-4,1-diyl))bis(2-hydroxybenzoic acid)] |  |  | XNTP polymerization efficiency relative to compound 1 [4]: at least as efficiently as compound 1
10 | O=C(O)c1ccc(-n2cc(-c3cncc(-c4cn(-c5ccc(C(=O)O)c(O)c5)nn4)c3)nn2)cc1O [Compound 2, 4,4′-(pyridine-3,5-diylbis(1H-1,2,3-triazole-4,1-diyl))bis(2-hydroxybenzoic acid)] |  |  | primer extension activity with XNTPs ([3]; FIG. 5, PEM at various concentrations, vs no PEM additive): significantly enhances primer extension activity
